This passage reports IC50 results from patent US20260355196A1, “INHIBITORS AND DEGRADERS OF PIP4K PROTEIN” (Larkspur Biosciences, Inc., priority 2023, published 2026).

As a reminder, the IC50 is the concentration at which inhibition is half-maximal.

Each structure is given as a SMILES string. A value given as a limit tells only on which side of the number the result lay.

For the assay, the target named is T1, PIP4K2C (Homo sapiens, UniProt Q8TBX8).
T1 sequence (Q8TBX8 1-421): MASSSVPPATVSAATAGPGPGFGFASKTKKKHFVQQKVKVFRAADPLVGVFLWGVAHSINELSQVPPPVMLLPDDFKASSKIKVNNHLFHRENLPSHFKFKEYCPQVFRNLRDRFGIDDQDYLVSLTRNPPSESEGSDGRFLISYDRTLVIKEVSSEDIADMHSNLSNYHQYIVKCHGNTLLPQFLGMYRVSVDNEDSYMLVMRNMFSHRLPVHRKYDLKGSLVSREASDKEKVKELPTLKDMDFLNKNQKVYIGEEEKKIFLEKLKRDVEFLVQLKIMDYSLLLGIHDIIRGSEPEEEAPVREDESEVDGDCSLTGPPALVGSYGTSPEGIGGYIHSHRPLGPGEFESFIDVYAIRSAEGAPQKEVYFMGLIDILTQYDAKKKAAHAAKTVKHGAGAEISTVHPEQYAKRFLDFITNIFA
As to the kind of experiment: Enzyme Binding Assay (KINOMEscan): active site-directed competition binding to an immobilized ligand. More on the design: purchased Eurofins DiscoverX, San Diego, CA 87-0007-1094. Conditions: 11-point dose response, duplicate, top concentration 5 micromolar; read-out: Pip4k2c Kd: IC50. In short, it runs like this: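 Active site-directed competition binding against an immobilized ligand. 11-point dose-response in duplicate, top concentration 5 micromolar; IC50 from a Hill equation fitted by the Levenberg-Marquardt algorithm.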
Take `CNC(=O)[C@H]1C[C@H](Nc2ncc(Cl)c(-c3cnn(-c4ccc(F)cc4)c3)n2)C1` [Compound 123, trans-(1r,3r)-3-((5-chloro-4-(1-(4-fluorophenyl)-1H-pyrazol-4-yl)pyrimidin-2-yl)amino)-N-methylcyclobutane-1-carboxamide]: the IC50 fell in the range of 500 to 1000 nM.
To `CC(=O)N[C@H]1CC[C@H](Nc2ncc(Cl)c(C3CCCN(C(=O)c4ccc(F)cc4)C3)n2)CC1` (stereo partly drawn) [Compound 124, trans-N-(4-((5-chloro-4-(1-(4-fluorobenzoyl)piperidin-3-yl)pyrimidin-2-yl)amino)cyclohexyl)acetamide] belongs under 500 nM.
To `CC(=O)N1CCC(Nc2ncc(Cl)c(C3CCCN(C(=O)c4ccc(F)cc4)C3)n2)CC1` (stereo not shown) [Compound 125, 1-(4-((5-chloro-4-(1-(4-fluorobenzoyl)piperidin-3-yl)pyrimidin-2-yl)amino)piperidin-1-yl)ethan-1-one] belongs 1000 to 5000 nM; to `CC(=O)N[C@H]1CC[C@H](Nc2ncc(Cl)c(C3CCN(C(=O)c4ccc(F)cc4)C3)n2)CC1` (stereo partly drawn) [Compound 126, trans-N-(4-((5-chloro-4-(1-(4-fluorobenzoyl)pyrrolidin-3-yl)pyrimidin-2-yl)amino)cyclohexyl)acetamide], 1000 to 5000 nM; to `CC(=O)N1CCC(Nc2ncc(Cl)c(C3CCN(C(=O)c4ccc(F)cc4)C3)n2)CC1` (stereo not shown) [Compound 127, 1-(4-((5-chloro-4-(1-(4-fluorobenzoyl)pyrrolidin-3-yl)pyrimidin-2-yl)amino)piperidin-1-yl)ethan-1-one], 500 to 1000 nM.
For `CC(=O)N1CCC[C@H](Nc2ncc(Cl)c(-c3cccc(-c4ccc(F)cc4)c3)n2)C1` [Compound 128, (S)-1-(3-((5-chloro-4-(4′-fluoro-[1,1′-biphenyl]-3-yl)pyrimidin-2-yl)amino)piperidin-1-yl)ethan-1-one], the IC50 is under 500 nM.
To `CC(=O)N1CCC[C@H](Nc2ncc(Cl)c(-c3cccc(-n4ccccc4=O)c3)n2)C1` [Compound 129, (S)-1-(3-(2-((1-acetylpiperidin-3-yl)amino)-5-chloropyrimidin-4-yl)phenyl)pyridin-2(1H)-one] belongs under 500 nM.
For `CC(=O)N[C@H]1CC[C@@H](Nc2ncc(Cl)c(-c3cccc(-c4ccc(F)cc4)n3)n2)CC1` [Compound 130, cis-N-((1s,4s)-4-((5-chloro-4-(6-(4-fluorophenyl)pyridin-2-yl)pyrimidin-2-yl)amino)cyclohexyl)acetamide], the IC50 was under 500 nM.
To `CNC(=O)[C@H]1CC[C@@H](Nc2ncc(Cl)c(-c3cccc(-c4ccc(F)cc4)n3)n2)CC1` [Compound 131, cis-(1s,4s)-4-((5-chloro-4-(6-(4-fluorophenyl)pyridin-2-yl)pyrimidin-2-yl)amino)-N-methylcyclohexane-1-carboxamide] belongs under 500 nM.
To `CC(=O)N1CCC(Nc2ncc(Cl)c(-c3cc(C4CC4)[nH]n3)n2)CC1` [Compound 132, 1-(4-((5-chloro-4-(5-cyclopropyl-1H-pyrazol-3-yl)pyrimidin-2-yl)amino)piperidin-1-yl)ethan-1-one] belongs under 500 nM; to `CNC(=O)[C@H]1C[C@H](Nc2ncc(Cl)c(-c3cnn(-c4cc[nH]c(=O)c4)c3)n2)C1` [Compound 133, trans-(1r,3r)-3-((5-chloro-4-(1-(2-oxo-1,2-dihydropyridin-4-yl)-1H-pyrazol-4-yl)pyrimidin-2-yl)amino)-N-methylcyclobutane-1-carboxamide], 500 to 1000 nM.
To `CNC(=O)[C@H]1CC[C@H](Nc2ncc(Cl)c(-c3cnn(-c4ccc(F)cc4)c3)n2)CC1` [Compound 134, trans-(1r,4r)-4-((5-chloro-4-(1-(4-fluorophenyl)-1H-pyrazol-4-yl)pyrimidin-2-yl)amino)-N-methylcyclohexane-1-carboxamide] belongs under 500 nM; to `CC(=O)N1CCC(Nc2ncc(Cl)c(-c3cccc(-c4ccc[nH]c4=O)c3)n2)CC1` [Compound 137, 3-(3-(2-((1-acetylpiperidin-4-yl)amino)-5-chloropyrimidin-4-yl)phenyl)pyridin-2(1H)-one], under 500 nM.
For the compound `CNC(=O)[C@H]1CC[C@@H](Nc2ncc(Cl)c(-c3cccc(-c4ccc[nH]c4=O)c3)n2)CC1` [Compound 138, cis-(1s,4s)-4-((5-chloro-4-(3-(2-oxo-1,2-dihydropyridin-3-yl)phenyl)pyrimidin-2-yl)amino)-N-methylcyclohexane-1-carboxamide], the IC50 was under 500 nM.
The same measure for `CNC(=O)[C@H]1C[C@H](Nc2ncc(Cl)c(-c3cccc(-c4ccc[nH]c4=O)c3)n2)C1` [Compound 139, trans-(1r,3r)-3-((5-chloro-4-(3-(2-oxo-1,2-dihydropyridin-3-yl)phenyl)pyrimidin-2-yl)amino)-N-methylcyclobutane-1-carboxamide]: under 500 nM.
The same measure for `CNC(=O)[C@H]1C[C@H](Nc2ncc(Cl)c(-c3cccc(-c4ccc(F)cc4)n3)n2)C1` [Compound 140, trans-(1r,3r)-3-((5-chloro-4-(6-(4-fluorophenyl)pyridin-2-yl)pyrimidin-2-yl)amino)-N-methylcyclobutane-1-carboxamide]: under 500 nM.
The same measure for `CC(=O)N1CCC[C@H](Nc2ncc(Cl)c(-c3ccnc(-c4ccc(F)cc4)c3)n2)C1` [Compound 141, (S)-1-(3-((5-chloro-4-(2-(4-fluorophenyl)pyridin-4-yl)pyrimidin-2-yl)amino)piperidin-1-yl)ethan-1-one]: under 500 nM; for `CC(=O)N[C@H]1CC[C@H](Nc2ncc(Cl)c(-c3ccnc(-c4ccc(F)cc4)c3)n2)CC1` [Compound 142, trans-N-((1r,4r)-4-((5-chloro-4-(2-(4-fluorophenyl)pyridin-4-yl)pyrimidin-2-yl)amino)cyclohexyl)acetamide]: under 500 nM; for `CC(=O)N1CCC[C@H](Nc2ncc(Cl)c(-c3ccc(=O)n(-c4ccc(F)cc4)c3)n2)C1` [Compound 143, (S)-5-(2-((1-acetylpiperidin-3-yl)amino)-5-chloropyrimidin-4-yl)-1-(4-fluorophenyl)pyridin-2(1H)-one]: 500 to 1000 nM.
With `CNC(=O)[C@H]1CC[C@H](Nc2ncc(Cl)c(-c3cc(C4CC4)[nH]n3)n2)CC1` [Compound 144, trans-(1r,4r)-4-((5-chloro-4-(5-cyclopropyl-1H-pyrazol-3-yl)pyrimidin-2-yl)amino)-N-methylcyclohexane-1-carboxamide], the IC50 is 1000 to 5000 nM.
In the case of `CC(=O)N[C@H]1CC[C@H](Nc2ncc(Cl)c(-c3cnn(-c4ccc(=O)[nH]c4)c3)n2)CC1` [Compound 145, trans-N-((1r,4r)-4-((5-chloro-4-(1-(6-oxo-1,6-dihydropyridin-3-yl)-1H-pyrazol-4-yl)pyrimidin-2-yl)amino)cyclohexyl)acetamide], the IC50 is under 500 nM.
The same measure for `CNC(=O)[C@H]1CC[C@H](Nc2ncc(Cl)c(-c3cnn(-c4ccc(=O)[nH]c4)c3)n2)CC1` [Compound 146, trans-(1r,4r)-4-((5-chloro-4-(1-(6-oxo-1,6-dihydropyridin-3-yl)-1H-pyrazol-4-yl)pyrimidin-2-yl)amino)-N-methylcyclohexane-1-carboxamide]: under 500 nM; for `CC(=O)N[C@H]1CC[C@H](Nc2ncc(Cl)c(-c3cnn(-c4cc[nH]c(=O)c4)c3)n2)CC1` [Compound 147, trans-N-((1r,4r)-4-((5-chloro-4-(1-(2-oxo-1,2-dihydropyridin-4-yl)-1H-pyrazol-4-yl)pyrimidin-2-yl)amino)cyclohexyl)acetamide]: under 500 nM.
As to `CNC(=O)[C@H]1CC[C@@H](Nc2ncc(Cl)c(-c3cnn(-c4cc[nH]c(=O)c4)c3)n2)CC1` [Compound 148, cis-(1s,4s)-4-((5-chloro-4-(1-(2-oxo-1,2-dihydropyridin-4-yl)-1H-pyrazol-4-yl)pyrimidin-2-yl)amino)-N-methylcyclohexane-1-carboxamide], the IC50 lay within 1000 to 5000 nM.
To `CC(=O)N[C@H]1CC[C@H](Nc2ncc(Cl)c(-c3cnn(-c4ccc[nH]c4=O)c3)n2)CC1` [Compound 149, trans-N-((1r,4r)-4-((5-chloro-4-(1-(2-oxo-1,2-dihydropyridin-3-yl)-1H-pyrazol-4-yl)pyrimidin-2-yl)amino)cyclohexyl)acetamide] belongs under 500 nM; to `CC(=O)N1CCC[C@H](Nc2ncc(Cl)c(-c3cccc(-c4ccc[nH]c4=O)c3)n2)C1` [Compound 152, (S)-3-(3-(2-((1-acetylpiperidin-3-yl)amino)-5-chloropyrimidin-4-yl)phenyl)pyridin-2(1H)-one], under 500 nM; to `CC(=O)N[C@H]1CC[C@@H](Nc2ncc(Cl)c(-c3cccc(-c4ccc[nH]c4=O)c3)n2)CC1` [Compound 153, cis-N-((1s,4s)-4-((5-chloro-4-(3-(2-oxo-1,2-dihydropyridin-3-yl)phenyl)pyrimidin-2-yl)amino)cyclohexyl)acetamide], under 500 nM.
On to `CC(=O)N[C@H]1CC[C@H](Nc2ncc(Cl)c(-c3cccc(-c4ccc[nH]c4=O)c3)n2)CC1` [Compound 154, trans-N-((1r,4r)-4-((5-chloro-4-(3-(2-oxo-1,2-dihydropyridin-3-yl)phenyl)pyrimidin-2-yl)amino)cyclohexyl)acetamide], for which the IC50 is under 500 nM.
